Assay results reported in PMC9731865, “Gambogic acid and juglone inhibit RNase P through distinct mechanisms” (The Journal of Biological Chemistry, 2022).
pKi: −log10 of the molar value.

What was measured:
B. subtilis RNase P = B. subtilis RNase P activity assay (FP, real-time); type: biochemical; settings: ratio of IC50 values
Method: Figure 4 Gambogic acid and juglone inhibit A. thaliana PRORP1 (green), human MRPP1/2/3 (red), and B. subtilis RNase P (blue). Compounds gambogic acid (A) and juglone (B) were incubated with enzyme at double the reaction concentration for 30 min prior to the addition of an equal volume of substrate to initiate the reaction. PRORP1 reactions (shown in green) were performed with 0.3 nM PRORP1 and 800 nM pre-tRNA containing 40 nM Fl-pre-tRNA at 25 °C in 30 mM MOPS pH 7.8, 5 mM MgCl2, 100 mM NaCl, 1 mM TCEP, 500 nM (12 μg/ml) yeast tRNA, 5 mM spermidine, 6.65 μg/ml BSA, and 0.01% NP-40. MRPP1/2/3 reactions (shown in red) were performed using 50 nM MRPP3, 500 nM MRPP1/2, 500 nM pre-tRNA containing 40 nM Fl-pre-tRNA at 37 °C in 50 mM MOPS (pH 7.8), 1 mM TCEP, 4.5 mM MgCl2, and 100 mM NaCl. B. subtilis RNase P reactions (shown in blue) were performed using 20 nM RNase P and 500 nM pre-tRNA containing 40 nM Fl-pre-tRNA at 37 °C in 50 mM Tris, pH 7.2, 5 mM MgCl2, 100 mM KCl, 500 nM (12 μg/ml) yeast tRNA, 20 mM dithiothreitol (DTT), 10 mM spermidine, and 0.01% NP-40. Equation 1 was fit to each dataset.
The inhibition of B. subtilis RNase P activity by gambogic acid and juglone was measured using a previously developed FP assay in real-time.^25 Reactions were performed under multiple turnover conditions using 20 nM RNase P and 500 nM Fl-pre-tRNA^Asp in 50 mM Tris (pH 7.2), 5 mM MgCl2, 100 mM KCl, 500 nM (12 μg/ml) yeast tRNA^mix, 20 mM dithiothreitol, 10 mM spermidine, and 0.01% NP-40 at 37 °C.

PRORP1 C353A = target: T1, PRORP1 C353A (Arabidopsis thaliana, UniProt Q66GI4, C353A); experiment: Time-dependent inactivation by juglone, PRORP1 C353A; type: biochemical, A. thaliana
T1 construct: made in house
T1 sequence (Q66GI4 77-572 C353A): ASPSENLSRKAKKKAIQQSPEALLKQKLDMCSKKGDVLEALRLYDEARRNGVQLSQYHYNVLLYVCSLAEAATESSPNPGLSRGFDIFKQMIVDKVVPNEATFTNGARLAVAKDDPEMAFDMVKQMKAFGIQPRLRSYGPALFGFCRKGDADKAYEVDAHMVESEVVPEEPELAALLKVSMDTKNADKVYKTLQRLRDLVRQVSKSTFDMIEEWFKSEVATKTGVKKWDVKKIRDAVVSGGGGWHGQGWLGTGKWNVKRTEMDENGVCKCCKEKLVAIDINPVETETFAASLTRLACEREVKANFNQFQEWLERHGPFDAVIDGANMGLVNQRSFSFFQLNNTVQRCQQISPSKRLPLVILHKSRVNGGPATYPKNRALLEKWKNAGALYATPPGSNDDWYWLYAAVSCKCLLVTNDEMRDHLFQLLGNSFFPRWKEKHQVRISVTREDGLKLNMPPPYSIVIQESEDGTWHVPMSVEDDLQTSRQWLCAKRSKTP
Method: Given the multiple sites of cysteine modification, we wanted to identify the one(s) that potentially play a significant role in PRORP1 inactivation. Therefore, several cysteine-to-alanine point mutants were expressed, purified, and subjected to inhibition studies. We tested both single-site (C353A and C373A) and double-site (C353A/C373A and C222A/C353A) mutations. […] The value of kinact,app for each PRORP1 at varied concentrations of juglone was determined by fitting a single exponential equation (Equation 5) to the data (Fig. 10A). Unexpectedly, the values of kinact/KI (reflecting the inhibition of E + I to form EI∗) increased for a number of the PRORP1 variants: wildtype (0.001 ± 0.00004 μM^-1 min^-1), C353A (0.005 ± 0.002 μM^−1 min^−1), C373A (0.002 ± 0.0004 μM^-1 min^−1), C222A/C353A (0.003 ± 0.0001 μM^−1 min^−1), and C353A/C373A (0.0008 ± 0.0002 μM^-1 min^−1). These modest increases could be due to a decrease in the KI value or an increase in the value of kinact. […] Although, we cannot discount the possibility, however unlikely, that juglone may employ a mode of inhibition beyond cysteine residue modification that our crystal structures fail to capture.
Figure 10 Effects of PRORP1 cysteine mutations on juglone inactivation. […]
For the analysis of juglone, PRORP1 activity was measured with varying preincubation time and juglone concentration. […]

Structure (SMILES)	fold less potent against B. subtilis RNP RNase P than against PRORP1 and MRPP1/2/3 (B. subtilis RNase P)	fold less potent against B. subtilis RNP RNase P than against PRORP1 and MRPP1/2/3 (B. subtilis RNase P; listed as Gambogic acid)	pKi (PRORP1 C353A)	kinact/KI (PRORP1 C353A) [M⁻¹ s⁻¹]
CC(C)=CCC[C@]1(C)C=Cc2c(O)c3c(c(CC=C(C)C)c2O1)O[C@]12C(=C[C@@H]4C[C@H]1C(C)(C)O[C@@]2(C/C=C(/C)C(=O)O)C4=O)C3=O [gambogic acid]	at least 50 fold	more than 50 fold	–	–
O=C1C=CC(=O)c2c(O)cccc21 [juglone, 5-hydroxy-1,4-naphthalenedione]	–	–	< 5.00	83.3
